“Also recorded” adds a separate entry of the source.
How the values were obtained:
HIV-1 integrase [1] = biological target: T1, HIV-1 integrase (Human immunodeficiency virus type 1 group M subtype B, UniProt P04585); conditions: three tests: endonucleolytic cleavage, strand transfer, disintegration
Procedure: 1—The endonucleolytic activity of the protein is tested on a double-strand oligonucleotide of 21 base pairs, radiolabelled at the 5′ end. The activity of the integrase is expressed by elimination of the dinucleotide at the 3′ end.
2—The strand transfer test is carried out with a double-strand oligonucleotide of 21 base pairs mimicking the end of the viral DNA, the 3′ terminal dinucleotide of which has been supressed. The activity of the protein is expressed by the covalent insertion of this oligonucleotide in a homologous oligonucleotide.
3—The disintegration test is carried out with a substrate mimicking the structure of the integrated viral DNA. The quantity of DNA excised by the integrase is measured. This last test only quantifies the catalytic activity of the protein excluding its fixation activity on the DNA.

HIV-1 integrase [2] = biological target: T1, HIV-1 integrase; test: endonucleolytic cleavage test of HIV-1 integrase (21 bp oligonucleotide); type: biochemical; conditions: read-out: endonucleolytic cleavage, concentration necessary to block 50% of the activity of HIV-1 integrase
HIV-1 integrase [3] = biological target: T1, HIV-1 integrase; test: strand transfer test of HIV-1 integrase; type: biochemical; conditions: read-out: strand transfer, concentration necessary to block 50% of the activity of HIV-1 integrase
HIV-1 integrase [4] = biological target: T1, HIV-1 integrase; test: disintegration test of HIV-1 integrase; type: biochemical; conditions: read-out: disintegration, concentration necessary to block 50% of the activity of HIV-1 integrase
HIV-1 [5] = conditions: 72 hours, ELISA p24
Procedure: The activity test consists of putting the cells of an established lymphocyte line, CEM cells, in contact with a supernatant of infected cells containing the infectious virions. The test is carried out in the following manner: The CEM cells, cultured in suspension in RPMI medium supplemented with 10% of foetal calf serum, are infected with a viral supernatant with a multiplicity of infection of 0.5. After 2 hours of infection, the cells are washed twice with RPMI medium in a manner so as to eliminate the residual viral particles. Finally, the cells are replaced in RPMI medium containing the compound according to the invention. The viral load is evaluated after 72 hours of culture. This is quantified in two of the following ways:
1) The quantity of viral protein p24 is determined by an ELISA test.

ACH2 cells = test: toxicity on ACH2 cells, MTT biotransformation test; type: cell-based
Procedure: (§1) The toxicity of the compounds is tested by a biotransformation test of MTT to formazan by cellular mitochondrial dehydrogenases.
(§2) The compounds according to the present invention were tested on the late stages of the replication of HIV-1. The test is as follows: The ACH2 cells which integrated HIV-1 viral DNA were used. […] When the cells are used in the presence of TNF, they express the HIV virus from the integrated provirus. The production of viral particles is detected 24 hours after activation. The viral load in the supernatant is quantified by the ELISA p24 test.

HIV-1 [6] = test: HIV-1 replication in CEM cells, infectious virus load on Hela β-gal CD4+ cells; type: cell-based; conditions: read-out: β-gal activity, 50% effectiveness on production of viral particles, 72 hours, HeLa β-gal colorimetric test, global antiviral effect
From the text: This is quantified in two of the following ways:

EcoRI restriction enzyme = EcoRI restriction enzyme (Escherichia coli, UniProt P00642); test: inhibition of cleavage of linearized pSP65 plasmid by EcoRI; type: biochemical; conditions: 4 hours, 0.1 units EcoRI
Sequence of EcoRI restriction enzyme (P00642 whole entry): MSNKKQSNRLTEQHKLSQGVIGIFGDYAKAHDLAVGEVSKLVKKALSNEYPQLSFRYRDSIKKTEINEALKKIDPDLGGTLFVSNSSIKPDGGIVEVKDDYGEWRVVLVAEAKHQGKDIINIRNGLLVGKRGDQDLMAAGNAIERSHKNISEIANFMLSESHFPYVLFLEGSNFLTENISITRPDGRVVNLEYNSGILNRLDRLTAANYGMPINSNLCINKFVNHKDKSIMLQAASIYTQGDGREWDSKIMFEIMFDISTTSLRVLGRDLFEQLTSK
Procedure: The catalytic site of HIV-1 integrase is very close to that of the EcoRI restriction enzyme. The compounds which block both proteins are therefore catalytic inhibitors of integrase.
The linearized plasmid is incubated for 4 hours in the presence of 0.1 units of the EcoRI enzyme. The enzyme activity is monitored by the appearance of the cleavage products on 1.2% agarose gel.

HIV-1 [7] = test: late stages of HIV-1 replication in TNF-activated ACH2 cells, p24 ELISA; type: cell-based; conditions: 24 hours; for effect on the production of viral particles (in words): ACH2 cells
Procedure: as §2

CEM cells = test: toxicity on CEM cells, MTT biotransformation test; type: cell-based
Procedure: as §1

[8] = biological target: T2, reverse transcriptase enzyme of the HIV-1 virus (Human immunodeficiency virus type 1 group M subtype B, UniProt P04585); test: reverse transcriptase activity of lysed viral particles on polyrC/oligo(dG); type: biochemical; conditions: polyrC matrix, oligo (dG) primer
T2 construct: endogenous in cells; host or cells: viral particles concentrated from the supernatant of a CEM cell culture, lysed in non-ionic detergent
Procedure: The specificity of the compounds according to the invention for integrase is estimated by an activity test on the reverse transcriptase enzyme of the HIV-1 virus. This test is carried out in the following manner: The viral particles of a supernatant of a CEM cell culture (established lymphocyte line) are concentrated by centrifugation at 30,000 RPM. These viral particles are lysed in a non-ionic detergent and their reverse transcriptase activity is tested on a substrate formed from a hybridized oligo (dG) primer on a polyrC matrix. In the presence of radiolabelled nucleotide dG, the transcriptase activity is expressed by the formation of labelled polynucleotide which can be precipitated in trichloroacetic acid. This confirms that a dideoxynucleotide ddG inhibits the formation of acid precipitatable.

| Structure (SMILES) | anti-integrase activity in the tests for in vitro activity (in words) (HIV-1 integrase [1]) | IC50 (HIV-1 integrase [2]) | IC50 (HIV-1 integrase [3]) | IC50 (HIV-1 integrase [4]) | anti-viral effect, production of viral particles / replication in CEM cells (in words) (HIV-1 [5]) | MTT, toxicity by biotransformation (ACH2 cells) | EC50 (HIV-1 [6]) | cleavage by EcoRI (in words) (EcoRI restriction enzyme) | effect on the production of viral particles (in words) (HIV-1 [7]; above 50 μM) | effect on the production of viral particles (in words) (HIV-1 [7]; concentrations up to 100 μM) | IC50 (HIV-1 [7]; Human immunodeficiency virus 1, ACH-2, ACH2 cells activated by TNF, effect on the late stages, read-out: p24 test, inhibitory 50% concentration) | MTT, toxicity by biotransformation (CEM cells) | toxicity according to the MTT test (in words) (CEM cells; up to 100 μM, maximum concentration tested) | reverse transcription inhibition (in words) [8] |
| --- | --- | --- | --- | --- | --- | --- | --- | --- | --- | --- | --- | --- | --- | --- |
| O=C(O)c1ccc2ccc(/C=C/c3cc(O)c(O)c(O)c3)nc2c1O [Compound 3, 8-hydroxy-2-[2-[(3.4,5-trihydroxyphenyl)ethenyl]]7-quinoline carboxylic acid] | inhibit the three activites | 0.32 µM | 0.31 µM | 0.056 µM | – | – | – | – | – | – | – | – | – | – |
| O=C([O-])c1ccc2ccc(C=Cc3ccc(O)c(O)c3)nc2c1O.[Na+] [Compound 2, sodium salt of 8-hydroxy-2-[2-[(3,4-dihydroxyphenyl)ethenyl]]7-quinoline-carboxylic acid] | – | – | – | – | blocks the production of viral particules; also recorded: same anti-viral effect | – | – | – | – | – | – | – | – | – |
| O=C(O)c1ccc2ccc(/C=C/c3ccc(O)c(O)c3)nc2c1O [Compound 1, 8-hydroxy-2-[2-[(3,4-dihydroxyphenyl)ethenyl]]7-quinoline carboxylic acid] | inhibit the three activites | – | – | – | – | >100 µM | 4 µM | strongly inhibited | slight inhibition | No other significant effect | > 100 µM | >100 µM | devoid of toxicity | no reverse transcription inhibition |

Source: patent US6670377B1, “Quinoline derivatives, having in particular antiviral properties, preparation and biological applications thereof” (Centre National de la Recherche, priority 1997, dated 2003)
